Laboratory results taken from ChEMBL document CHEMBL1795236, “Design and synthesis of protein-protein interaction mimics as Plasmodium falciparum cysteine protease, falcipain-2 inhibitors” (Eur J Med Chem, 2011).
Calls of active or inactive are those of the source. The rule behind the calls is not given here. Peptide text beside a SMILES is read from it.

Experiments:
Plasmodium falciparum [1] = assay: Inhibition of Plasmodium falciparum recombinant falcipain 2 using fluorogenic ZFR-AMC substrate at 5 uM after 30 mins by fluorimetric assay
Plasmodium falciparum [2] = assay: Antimalarial activity against Plasmodium falciparum infected in human RBC assessed as abnormal schizonts at 200 nM after 48 hrs by Giemsa staining based microscopy; type: functional, organism-based
[3] = (§1) Inhibition of Plasmodium falciparum recombinant refolded falcipain 2 activity using ZFR-AMC as a substrate after 30 mins by fluorimetric assay
Plasmodium falciparum [4] = assay: Antimalarial activity against Plasmodium falciparum infected in human RBC assessed as swollen food vacuole at early trophozoite stage at 200 nM after 48 hrs by Giemsa staining based microscopy; type: functional, organism-based
Plasmodium falciparum [5] = assay: Antimalarial activity against Plasmodium falciparum infected in human RBC assessed as clumps of malarial pigment at 200 nM after 48 hrs by Giemsa staining based microscopy; type: functional, organism-based
Plasmodium falciparum [6] = assay: as §1

Row | Molecule | inhibition (Plasmodium falciparum [1]) [%] | Activity (Plasmodium falciparum [2]) | Ki [3] [nM] | Activity (Plasmodium falciparum [4]) | Activity (Plasmodium falciparum [5]) | inhibition (Plasmodium falciparum [6])
1 | CC[C@H](C)[C@H](NC(=O)CNC(=O)[C@H](CO)NC(=O)[C@@H](NC(=O)[C@H](CC(C)C)NC(=O)[C@H](CCC(N)=O)NC(=O)[C@@H]1CSSC[C@H](NC(=O)[C@@H]2CCCN2C(=O)[C@H](C)NC(=O)CNC(=O)[C@H](CC(C)C)NC(=O)[C@H](CC(C)C)NC(=O)[C@@H](N)CCCNC(=N)N)C(=O)NCCCC(=O)N1)C(C)C)C(=O)NCCC(=O)NCCC(=O)N1CCC[C@H]1C(=O)N[C@@H](Cc1c[nH]c2ccccc12)C(N)=O (HELM PEPTIDE1{R.L.L.G.A.P.C.[O=C(CCCN[*:1])[*:2]].C.Q.L.V.S.G.I.[bAla].[bAla].P.W.[am]}$PEPTIDE1,PEPTIDE1,7:R3-9:R3$$$V2.0) | 39 | – | – | – | – | –
2 | CC[C@H](C)[C@H](NC(=O)CNC(=O)[C@H](CO)NC(=O)[C@@H](NC(=O)[C@H](CC(C)C)NC(=O)[C@H](CCC(N)=O)NC(=O)[C@H](CCCNC(=N)N)NC(=O)[C@H]1CC[C@@H](NC(=O)[C@@H](NC(=O)[C@@H]2CCCN2C(=O)[C@H](C)NC(=O)CNC(=O)[C@H](CC(C)C)NC(=O)[C@H](CC(C)C)NC(=O)[C@@H](N)CCCNC(=N)N)C(C)C)CC1)C(C)C)C(=O)NCCC(=O)NCCC(=O)N1CCC[C@H]1C(=O)N[C@@H](Cc1c[nH]c2ccccc12)C(N)=O (HELM PEPTIDE1{R.L.L.G.A.P.V.[O=C([C@H]1CC[C@@H](N[*:1])CC1)[*:2]].R.Q.L.V.S.G.I.[bAla].[bAla].P.W.[am]}$$$$V2.0) | 60 | Active | 2500 | Active | Active | –
3 | CC[C@H](C)[C@H](NC(=O)CNC(=O)[C@H](CO)NC(=O)[C@@H](NC(=O)[C@H](CC(C)C)NC(=O)[C@H](CCC(N)=O)NC(=O)[C@@H]1CSSC[C@H](NC(=O)[C@@H]2CCCN2C(=O)[C@H](C)NC(=O)CNC(=O)[C@H](CC(C)C)NC(=O)[C@H](CC(C)C)NC(=O)[C@@H](N)CCCNC(=N)N)C(=O)NCCCC(=O)N1)C(C)C)C(N)=O (HELM PEPTIDE1{R.L.L.G.A.P.C.[O=C(CCCN[*:1])[*:2]].C.Q.L.V.S.G.I.[am]}$PEPTIDE1,PEPTIDE1,7:R3-9:R3$$$V2.0) | 39 | – | – | – | – | –
4 | H-RLLGAPV-NH2 | 5 | Active | – | Active | Active | –
5 | CC[C@H](C)[C@H](NC(=O)CNC(=O)[C@H](CO)NC(=O)[C@@H](NC(=O)[C@H](CC(C)C)NC(=O)[C@H](CCC(N)=O)NC(=O)[C@H](CCCNC(=N)N)NC(=O)CCCNC(=O)[C@@H](NC(=O)[C@@H]1CCCN1C(=O)[C@H](C)NC(=O)CNC(=O)[C@H](CC(C)C)NC(=O)[C@H](CC(C)C)NC(=O)[C@@H](N)CCCNC(=N)N)C(C)C)C(C)C)C(N)=O (HELM PEPTIDE1{R.L.L.G.A.P.V.[O=C(CCCN[*:1])[*:2]].R.Q.L.V.S.G.I.[am]}$$$$V2.0) | 57 | Active | 2500 | Active | Active | –
6 | CC[C@H](C)[C@H](NC(=O)CNC(=O)[C@H](CO)NC(=O)[C@@H](NC(=O)[C@H](CC(C)C)NC(=O)[C@H](CCC(N)=O)NC(=O)[C@H](CCCNC(=N)N)NC(=O)CCCNC(=O)[C@@H](NC(=O)[C@@H]1CCCN1C(=O)[C@H](C)NC(=O)CNC(=O)[C@H](CC(C)C)NC(=O)[C@H](CC(C)C)NC(=O)[C@@H](N)CCCNC(=N)N)C(C)C)C(C)C)C(=O)NCCC(=O)NCCC(=O)N1CCC[C@H]1C(=O)N[C@@H](Cc1c[nH]c2ccccc12)C(N)=O (HELM PEPTIDE1{R.L.L.G.A.P.V.[O=C(CCCN[*:1])[*:2]].R.Q.L.V.S.G.I.[bAla].[bAla].P.W.[am]}$$$$V2.0) | 49 | Active | – | Active | Active | –
7 | CC[C@H](C)[C@H](NC(=O)CNC(=O)[C@H](CO)NC(=O)[C@@H](NC(=O)[C@H](CC(C)C)NC(=O)[C@H](CCC(N)=O)NC(=O)[C@H]1CC[C@@H](NC(=O)[C@@H]2CCCN2C(=O)[C@H](C)NC(=O)CNC(=O)[C@H](CC(C)C)NC(=O)[C@H](CC(C)C)NC(=O)[C@@H](N)CCCNC(=N)N)CC1)C(C)C)C(N)=O (HELM PEPTIDE1{R.L.L.G.A.P.[O=C([C@H]1CC[C@@H](N[*:1])CC1)[*:2]].Q.L.V.S.G.I.[am]}$$$$V2.0) | 50 | Active | – | Active | Active | –
8 | CC[C@H](C)[C@H](NC(=O)CNC(=O)[C@H](CO)NC(=O)[C@@H](NC(=O)[C@H](CC(C)C)NC(=O)[C@H](CCC(N)=O)NC(=O)CCCNC(=O)[C@@H]1CCCN1C(=O)[C@H](C)NC(=O)CNC(=O)[C@H](CC(C)C)NC(=O)[C@H](CC(C)C)NC(=O)[C@@H](N)CCCNC(=N)N)C(C)C)C(=O)NCCC(=O)NCCC(=O)N1CCC[C@H]1C(=O)N[C@@H](Cc1c[nH]c2ccccc12)C(N)=O (HELM PEPTIDE1{R.L.L.G.A.P.[O=C(CCCN[*:1])[*:2]].Q.L.V.S.G.I.[bAla].[bAla].P.W.[am]}$$$$V2.0) | 32 | – | – | – | – | –
9 | CC(C)C[C@H](NC(=O)[C@H]1O[C@@H]1C(=O)O)C(=O)NCCCCN=C(N)N | – | – | – | – | – | Active
10 | CC[C@H](C)[C@H](NC(=O)CNC(=O)[C@H](CO)NC(=O)[C@@H](NC(=O)[C@H](CC(C)C)NC(=O)[C@H](CCC(N)=O)NC(=O)CCCNC(=O)[C@@H]1CCCN1C(=O)[C@H](C)NC(=O)CNC(=O)[C@H](CC(C)C)NC(=O)[C@H](CC(C)C)NC(=O)[C@@H](N)CCCNC(=N)N)C(C)C)C(N)=O (HELM PEPTIDE1{R.L.L.G.A.P.[O=C(CCCN[*:1])[*:2]].Q.L.V.S.G.I.[am]}$$$$V2.0) | 44 | Active | – | Active | Active | –
11 | CC[C@H](C)[C@H](NC(=O)CNC(=O)[C@H](CO)NC(=O)[C@@H](NC(=O)[C@H](CC(C)C)NC(=O)[C@H](CCC(N)=O)NC(=O)[C@H](CCCNC(=N)N)NC(=O)[C@H]1CC[C@@H](NC(=O)[C@@H](NC(=O)[C@@H]2CCCN2C(=O)[C@H](C)NC(=O)CNC(=O)[C@H](CC(C)C)NC(=O)[C@H](CC(C)C)NC(=O)[C@@H](N)CCCNC(=N)N)C(C)C)CC1)C(C)C)C(N)=O (HELM PEPTIDE1{R.L.L.G.A.P.V.[O=C([C@H]1CC[C@@H](N[*:1])CC1)[*:2]].R.Q.L.V.S.G.I.[am]}$$$$V2.0) | 63 | Active | 2000 | Active | Active | –
12 | CC[C@H](C)[C@H](NC(=O)CNC(=O)[C@H](CO)NC(=O)[C@@H](NC(=O)[C@H](CC(C)C)NC(=O)[C@H](CCC(N)=O)NC(=O)[C@H]1CC[C@@H](NC(=O)[C@@H]2CCCN2C(=O)[C@H](C)NC(=O)CNC(=O)[C@H](CC(C)C)NC(=O)[C@H](CC(C)C)NC(=O)[C@@H](N)CCCNC(=N)N)CC1)C(C)C)C(=O)NCCC(=O)NCCC(=O)N1CCC[C@H]1C(=O)N[C@@H](Cc1c[nH]c2ccccc12)C(N)=O (HELM PEPTIDE1{R.L.L.G.A.P.[O=C([C@H]1CC[C@@H](N[*:1])CC1)[*:2]].Q.L.V.S.G.I.[bAla].[bAla].P.W.[am]}$$$$V2.0) | 57 | Active | – | Active | Active | –
13 | Ac-RQLVSGI-NH2 | 10 | – | – | – | – | –
14 | CC[C@H](C)[C@H](NC(=O)CNC(=O)[C@H](CO)NC(=O)[C@@H](NC(=O)[C@H](CC(C)C)NC(=O)[C@@H]1CSSC[C@H](NC(=O)[C@H](C)NC(=O)CNC(=O)[C@H](CC(C)C)NC(=O)[C@H](CC(C)C)NC(=O)[C@@H](N)CCCNC(=N)N)C(=O)NCCCC(=O)N1)C(C)C)C(N)=O (HELM PEPTIDE1{R.L.L.G.A.C.[O=C(CCCN[*:1])[*:2]].C.L.V.S.G.I.[am]}$PEPTIDE1,PEPTIDE1,6:R3-8:R3$$$V2.0) | 39 | – | – | – | – | –
15 | CC(=O)N[C@@H](CC(C)C)C(=O)N[C@@H](CC(C)C)C(=O)N[C@H](C=O)CCCNC(=N)N | – | – | – | – | – | Active
